Results from patent US12275731B2, “Azaindole inhibitors of wild-type and mutant forms of LRRK2” (DANA-FARBER CANCER INSTITUTE, INC., priority 2018, dated 2025).

Legend:
Assay in all cases: KinomeScan profiling
Assay type in all cases: binding
[1] = target: T1, RSK2(Kin.Dom.1-N-terminal) (Homo sapiens, UniProt P51812); conditions: read-out: % control
T1 construct: RSK2(Kin.Dom.1-N-terminal)
How it was run: (§1)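 The panel spans 468 kinases, and each inventive compound was applied at 1 μM from DMSO. Lower % control means stronger binding; the activity cut-off is set at less than 35%.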

[2] = target: LCK (Homo sapiens, UniProt P06239); conditions: read-out: % control
Chain of LCK (P06239 whole entry): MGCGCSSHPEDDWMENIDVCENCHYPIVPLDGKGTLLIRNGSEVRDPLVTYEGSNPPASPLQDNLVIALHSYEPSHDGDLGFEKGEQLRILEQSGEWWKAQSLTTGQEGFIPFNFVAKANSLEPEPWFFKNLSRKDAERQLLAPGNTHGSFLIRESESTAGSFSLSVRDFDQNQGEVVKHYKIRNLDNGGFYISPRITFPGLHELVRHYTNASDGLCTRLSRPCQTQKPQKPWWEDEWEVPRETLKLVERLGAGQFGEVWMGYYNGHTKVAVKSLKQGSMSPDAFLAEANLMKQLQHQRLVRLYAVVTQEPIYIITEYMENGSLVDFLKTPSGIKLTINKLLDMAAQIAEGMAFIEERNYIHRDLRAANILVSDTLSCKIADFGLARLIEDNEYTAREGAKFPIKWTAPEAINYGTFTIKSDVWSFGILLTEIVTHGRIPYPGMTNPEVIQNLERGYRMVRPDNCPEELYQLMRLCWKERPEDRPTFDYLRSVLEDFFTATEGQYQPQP
How it was run: as §1

[3] = target: T2, PRKD1 (Homo sapiens, UniProt Q15139); conditions: PRKD1, 1 μM; read-out: % control
T2 sequence (Q15139 1-912): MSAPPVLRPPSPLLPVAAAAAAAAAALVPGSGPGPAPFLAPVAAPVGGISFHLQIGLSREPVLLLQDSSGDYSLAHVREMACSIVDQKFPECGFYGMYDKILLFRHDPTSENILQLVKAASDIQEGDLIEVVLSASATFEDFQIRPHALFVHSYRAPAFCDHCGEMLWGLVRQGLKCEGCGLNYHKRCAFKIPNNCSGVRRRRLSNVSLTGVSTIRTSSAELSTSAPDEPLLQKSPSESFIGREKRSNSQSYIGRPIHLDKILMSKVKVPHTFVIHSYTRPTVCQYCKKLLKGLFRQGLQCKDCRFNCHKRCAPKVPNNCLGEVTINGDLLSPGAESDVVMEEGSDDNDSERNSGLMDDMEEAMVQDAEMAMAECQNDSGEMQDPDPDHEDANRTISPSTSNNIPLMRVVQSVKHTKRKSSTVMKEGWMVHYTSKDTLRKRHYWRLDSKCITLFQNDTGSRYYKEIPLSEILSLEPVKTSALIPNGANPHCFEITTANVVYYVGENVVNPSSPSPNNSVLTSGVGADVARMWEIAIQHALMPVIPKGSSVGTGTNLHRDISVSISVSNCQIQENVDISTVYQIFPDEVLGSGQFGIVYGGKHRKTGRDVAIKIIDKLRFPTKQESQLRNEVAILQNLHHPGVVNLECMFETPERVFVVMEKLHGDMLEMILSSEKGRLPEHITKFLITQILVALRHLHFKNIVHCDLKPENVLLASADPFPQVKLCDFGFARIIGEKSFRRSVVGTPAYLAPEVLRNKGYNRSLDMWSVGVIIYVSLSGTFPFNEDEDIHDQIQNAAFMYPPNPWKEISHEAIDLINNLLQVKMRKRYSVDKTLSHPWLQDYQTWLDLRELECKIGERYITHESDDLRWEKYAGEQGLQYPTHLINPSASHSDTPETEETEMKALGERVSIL
How it was run: as §1

[4] = target: T3, TNNI3K (Homo sapiens, UniProt Q59H18); conditions: read-out: % control
T3 sequence (Q59H18 1-835): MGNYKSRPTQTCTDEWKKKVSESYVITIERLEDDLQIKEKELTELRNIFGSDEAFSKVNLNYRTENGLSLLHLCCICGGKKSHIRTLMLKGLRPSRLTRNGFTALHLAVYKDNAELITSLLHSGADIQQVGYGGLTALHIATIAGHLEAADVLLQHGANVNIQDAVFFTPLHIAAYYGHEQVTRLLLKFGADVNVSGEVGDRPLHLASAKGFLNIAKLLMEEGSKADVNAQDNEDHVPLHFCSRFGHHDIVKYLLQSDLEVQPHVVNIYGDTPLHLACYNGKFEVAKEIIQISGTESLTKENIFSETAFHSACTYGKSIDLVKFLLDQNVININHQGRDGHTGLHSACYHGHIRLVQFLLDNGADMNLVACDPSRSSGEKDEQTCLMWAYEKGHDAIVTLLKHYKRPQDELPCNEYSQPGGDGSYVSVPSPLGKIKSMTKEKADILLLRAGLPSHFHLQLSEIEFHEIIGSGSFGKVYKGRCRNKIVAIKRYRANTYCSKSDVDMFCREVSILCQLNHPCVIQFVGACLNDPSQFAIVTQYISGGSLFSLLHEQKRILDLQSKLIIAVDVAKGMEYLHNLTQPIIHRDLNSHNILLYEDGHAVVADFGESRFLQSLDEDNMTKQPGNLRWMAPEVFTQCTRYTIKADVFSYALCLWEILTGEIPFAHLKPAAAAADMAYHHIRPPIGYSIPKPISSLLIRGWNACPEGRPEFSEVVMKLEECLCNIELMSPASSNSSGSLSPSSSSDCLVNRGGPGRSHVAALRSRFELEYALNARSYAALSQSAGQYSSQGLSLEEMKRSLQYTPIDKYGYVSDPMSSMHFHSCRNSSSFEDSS
How it was run: as §1

T1 sequence (P51812 68-327 limits assumed): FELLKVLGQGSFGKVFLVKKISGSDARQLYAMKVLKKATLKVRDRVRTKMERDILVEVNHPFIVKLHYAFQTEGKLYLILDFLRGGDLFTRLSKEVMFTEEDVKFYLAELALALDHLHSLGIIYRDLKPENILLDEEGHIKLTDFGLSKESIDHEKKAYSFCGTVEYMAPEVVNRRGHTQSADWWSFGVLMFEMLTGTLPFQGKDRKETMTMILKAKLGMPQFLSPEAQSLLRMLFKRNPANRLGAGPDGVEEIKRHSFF

| SMILES | remaining binding at 1 µM [1] | remaining binding at 1 µM [2] | remaining binding at 1 µM [3] | remaining binding at 1 µM [4] |
| --- | --- | --- | --- | --- |
| O=C(c1ccc(-c2cnc3[nH]cc(Cl)c3c2NC2CCCC2)cc1)N1CCC(N2CCOCC2)CC1 [Compound 101, (4-(3-chloro-4-(cyclopentylamino)-1H-pyrrolo[2,3-b]pyridin-5-yl)phenyl)(4-morpholinopiperidin-1-yl)methanone] | 65% | 100% | 48% | 100% |
| CNc1c(-c2cnn([C@H]3CCN(C(C)=O)C[C@@H]3F)c2)cnc2[nH]cc(Cl)c12 [Compound 77, 1-((3S,4S)-4-(4-(3-chloro-4-(methylamino)-1H-pyrrolo[2,3-b]pyridin-5-yl)-1H-pyrazol-1-yl)-3-fluoropiperidin-1-yl)ethan-1-one] | 54% | 96% | 58% | 65% |
| CNc1c(-c2ccc(C(=O)N3CCC(N4CCOCC4)CC3)cc2)cnc2[nH]cc(Cl)c12 [Compound 96, (4-(3-chloro-4-(methylamino)-1H-pyrrolo[2,3-b]pyridin-5-yl)phenyl)(4-morpholinopiperidin-1-yl)methanone] | 54% | 100% | 19% | 74% |
